The values below come from patent US11851449B2, “Heterocyclic amide compounds having an RORvt inhibitory action” (TAKEDA PHARMACEUTICAL COMPANY LIMITED, priority 2013, dated 2023).

Test [1] concerns the target T1, RORγt (Homo sapiens, UniProt P51449).
T1 sequence (P51449 1-497 isoform P51449-2): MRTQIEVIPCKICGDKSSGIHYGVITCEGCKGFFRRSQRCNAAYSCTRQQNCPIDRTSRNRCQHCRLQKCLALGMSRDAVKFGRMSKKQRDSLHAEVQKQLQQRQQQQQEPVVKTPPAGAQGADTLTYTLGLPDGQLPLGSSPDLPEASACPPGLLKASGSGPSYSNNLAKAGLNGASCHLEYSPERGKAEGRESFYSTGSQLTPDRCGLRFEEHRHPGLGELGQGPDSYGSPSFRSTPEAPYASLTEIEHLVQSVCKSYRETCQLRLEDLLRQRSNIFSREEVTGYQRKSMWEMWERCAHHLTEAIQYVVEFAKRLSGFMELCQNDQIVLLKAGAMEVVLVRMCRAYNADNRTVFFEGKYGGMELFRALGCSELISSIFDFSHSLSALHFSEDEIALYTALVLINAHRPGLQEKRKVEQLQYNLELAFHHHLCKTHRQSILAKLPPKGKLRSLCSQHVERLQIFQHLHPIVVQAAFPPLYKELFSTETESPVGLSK
Nature of the test: RORγt binding test (TR-FRET, fluorescent-labeled cholesterol). Particulars: read-out: binding inhibitory rate (%) of fluorescent-labeled cholesterol to RORγt at test compound 1 μM. Put shortly: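 His-tagged RORγt and BODIPY-cholesterol were incubated with compound for 20 min at room temperature in Tris-HCl pH 7.5, 100 mM NaCl, 1 mM DTT and 0.1% BSA. Terbium anti-His antibody was then added for a further 20 min.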
In general terms: In TR-FRET formats the signal depends on donor and acceptor labels being close together.

In test [2] the target is T1, RORγt. The test can be described thus: Cofactor recruitment test (Alpha Screen, biotinylated SRC-1 peptide). Particulars: read-out: signal value inhibitory rate (%) at test compound 1 μM. It counts as biochemical. On the procedure:
Cofactor Recruitment Test
Cofactor recruitment test was performed by Alpha Screen (Histidine Detection Kit, PerkinElmer) method. First, a test compound was diluted with an assay buffer (50 mM Tris-HCl (pH 7.5), 50 mM KCl, 1 mM DTT, 0.1% BSA) and added to a 384 well plate by 5 μL. […] The mixture was stood in a dark place for 1 hr, and the signal value was measured by Envision (PerkinElmer).

Test [3] has as its target T1, RORγt. Nature of the test: Jurkat reporter test (human IL-17 ROR response element luciferase reporter). It counts as cell-based. The settings on record: Jurkat, read-out: luminescence level inhibitory rate (%) at test compound 3 μM. The procedure, abridged:
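Luminescence (Bright-Glo, 10 min, RT) was measured after overnight compound treatment of electroporated Jurkat cells (1350 V, 10 ms interval, 3 pulses). The reaction medium was RPMI with 10% lipid-reduced FCS, 10 mM HEPES (pH 7.5) and 5 μM lovastatin.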
In general terms: A reporter such as luciferase makes a cellular process visible.

`COCc1ccc([C@@H](NC(=O)Cn2cnccc2=O)C(=O)Nc2ccc([Si](C)(C)C)c(F)c2)cc1` [Example 53, (2R)—N-(3-fluoro-4-(trimethylsilyl)phenyl)-2-(4-(methoxymethyl)phenyl)-2-(((6-oxopyrimidin-1(6H)-yl)acetyl)amino)acetamide]: the inhibition at 1 µM on RORγt [1] was found to be 102%; on RORγt [2] it was 97.8%. Moreover, at RORγt [3], the inhibition at 3 µM turned out to be 98.4%.

As for `COCc1ccc([C@@H](NC(=O)[C@H]2CNC(=O)C2)C(=O)Nc2ccc([Si](C)(C)C)c(F)c2)cc1` [Example 54, (3R)—N-((1R)-2-((3-fluoro-4-(trimethylsilyl)phenyl)amino)-1-(4-(methoxymethyl)phenyl)-2-oxoethyl)-5-oxopyrrolidine-3-carboxamide], the inhibition at 1 µM came to 102% on RORγt [1] and 95.6% on RORγt [2]. Moreover, the inhibition at 3 µM at RORγt [3] worked out at 99%.

For `COCc1ccc([C@@H](NC(=O)[C@H]2CNC(=O)C2)C(=O)Nc2cc(F)c([Si](C)(C)C)cc2F)cc1` [Example 55, (3R)—N-((1R)-2-((2,5-difluoro-4-(trimethylsilyl)phenyl)amino)-1-(4-(methoxymethyl)phenyl)-2-oxoethyl)-5-oxopyrrolidine-3-carboxamide], the results for the inhibition at 1 µM on RORγt [1] and at RORγt [2] were 102% and 95.8%, respectively. At RORγt [3], the inhibition at 3 µM worked out at 98.6%.

Take `COCc1ccc([C@@H](NC(=O)Cc2nnc(C)o2)C(=O)Nc2cc(F)c([Si](C)(C)C)cc2F)cc1` [Example 56, (2R)—N-(2,5-difluoro-4-(trimethylsilyl)phenyl)-2-(4-(methoxymethyl)phenyl)-2-(((5-methyl-1,3,4-oxadiazol-2-yl)acetyl)amino)acetamide]: the inhibition at 1 µM was 102% at RORγt [1] and 97.7% on RORγt [2]. Also, the inhibition at 3 µM on RORγt [3] is 100%.

In the case of `COCc1ccc([C@@H](NC(=O)Cn2cnccc2=O)C(=O)Nc2cc(F)c([Si](C)(C)C)cc2F)cc1` [Example 57, (2R)—N-(2,5-difluoro-4-(trimethylsilyl)phenyl)-2-(4-(methoxymethyl)phenyl)-2-(((6-oxopyrimidin-1(6H)-yl)acetyl)amino)acetamide], the inhibition at 1 µM came to 103% at RORγt [1] and 97.3% at RORγt [2]. The inhibition at 3 µM on RORγt [3] worked out at 98.9%.

With `COCc1ccc([C@@H](NC(=O)Cn2cnccc2=O)C(=O)Nc2cc(F)c([Si](C)(C)C)c(F)c2)cc1` [Example 58, (2R)—N-(3,5-difluoro-4-(trimethylsilyl)phenyl)-2-(4-(methoxymethyl)phenyl)-2-(((6-oxopyrimidin-1(6H)-yl)acetyl)amino)acetamide], the results for the inhibition at 1 µM at RORγt [1] and on RORγt [2] were 102% and 97.1%, respectively. Moreover, the inhibition at 3 µM at RORγt [3] was found to be 98.4%.

As to `COCc1ccc([C@@H](NC(=O)Cn2ccc(=O)[nH]c2=O)C(=O)Nc2ccc([Si](C)(C)C)c(F)c2)cc1` [Example 59, (2R)-2-(((2,4-dioxo-3,4-dihydropyrimidin-1(2H)-yl)acetyl)amino)-N-(3-fluoro-4-(trimethylsilyl)phenyl)-2-(4-(methoxymethyl)phenyl)acetamide], the inhibition at 1 µM on RORγt [1] turned out to be 102%; at RORγt [2], 96%. Also, the inhibition at 3 µM on RORγt [3] came to 99.2%.

For `COCc1ccc([C@@H](NC(=O)Cn2c(=O)cc[nH]c2=O)C(=O)Nc2ccc([Si](C)(C)C)c(F)c2)cc1` [Example 60, (2R)-2-(((2,6-dioxo-3,6-dihydropyrimidin-1 (2H)-yl)acetyl)amino)-N-(3-fluoro-4-(trimethylsilyl)phenyl)-2-(4-(methoxymethyl)phenyl)acetamide], the values for the inhibition at 1 µM at RORγt [1] and on RORγt [2] were 102% and 96.6%, respectively. Moreover, at RORγt [3], the inhibition at 3 µM is 99.7%.

For `COCc1ccc([C@@H](NC(=O)Cn2nc(C)ccc2=O)C(=O)Nc2cc(F)c([Si](C)(C)C)c(F)c2)cc1` [Example 61, (2R)—N-(3,5-difluoro-4-(trimethylsilyl)phenyl)-2-(4-(methoxymethyl)phenyl)-2-(((3-methyl-6-oxopyridazin-1(6H)-yl)acetyl)amino)acetamide], the inhibition at 1 µM on RORγt [1] worked out at 102%; on RORγt [2], 97%. The inhibition at 3 µM at RORγt [3] came out at 100%.

In the case of `COCc1ccc([C@@H](NC(=O)CN2C(=O)CNC2=O)C(=O)Nc2ccc([Si](C)(C)C)c(F)c2)cc1` [Example 62, (2R)-2-(((2,5-dioxoimidazolidin-1-yl)acetyl)amino)-N-(3-fluoro-4-(trimethylsilyl)phenyl)-2-(4-(methoxymethyl)phenyl)acetamide], the inhibition at 1 µM at RORγt [1] is 99.9%; on RORγt [2], 96.3%. In addition, the inhibition at 3 µM at RORγt [3] is 97.8%.

Regarding `COCc1ccc([C@@H](NC(=O)Cn2ccc(=O)cn2)C(=O)Nc2ccc([Si](C)(C)C)c(F)c2)cc1` [Example 63, (2R)—N-(3-fluoro-4-(trimethylsilyl)phenyl)-2-(4-(methoxymethyl)phenyl)-2-(((4-oxopyridazin-1(4H)-yl)acetyl)amino)acetamide], the figures for the inhibition at 1 µM at RORγt [1] and at RORγt [2] were 103% and 95.1%, respectively. In addition, at RORγt [3], the inhibition at 3 µM was determined as 99.7%.

Take `COc1ccc([C@@H](NC(=O)N2CC[C@H](O)C2)C(=O)Nc2ccc([Si](C)(C)C)c(F)c2)cc1` [Example 64, (3S)—N-((1R)-2-((3-fluoro-4-(trimethylsilyl)phenyl)amino)-1-(4-methoxyphenyl)-2-oxoethyl)-3-hydroxypyrrolidine-1-carboxamide]: the values for the inhibition at 1 µM on RORγt [1] and on RORγt [2] were 102% and 90.1%, respectively. Also, at RORγt [3], the inhibition at 3 µM was 98.7%.

With `COCc1ccc([C@@H](NC(=O)N2CC[C@H](O)C2)C(=O)Nc2ccc([Si](C)(C)C)c(F)c2)cc1` [Example 65, (3S)—N-((1R)-2-((3-fluoro-4-(trimethylsilyl)phenyl)amino)-1-(4-(methoxymethyl)phenyl)-2-oxoethyl)-3-hydroxypyrrolidine-1-carboxamide], the inhibition at 1 µM stood at 102% on RORγt [1] and 94.3% on RORγt [2]. The inhibition at 3 µM at RORγt [3] is 98.5%.

Consider `COCc1ccc([C@@H](NC(=O)N2CC[C@@H](O)C2)C(=O)Nc2ccc([Si](C)(C)C)c(F)c2)cc1` [Example 66, (3R)—N-((1R)-2-((3-fluoro-4-(trimethylsilyl)phenyl)amino)-1-(4-(methoxymethyl)phenyl)-2-oxoethyl)-3-hydroxypyrrolidine-1-carboxamide], for which the inhibition at 1 µM at RORγt [1] came out at 103%; on RORγt [2], 94.6%. Further, the inhibition at 3 µM at RORγt [3] was found to be 98.5%.

As to `COCc1ccc([C@@H](NC(=O)Cc2nnc(C)o2)C(=O)Nc2ccc([Si](C)(C)C)c(F)c2)cc1` [Example 67, (2R)—N-(3-fluoro-4-(trimethylsilyl)phenyl)-2-(4-(methoxymethyl)phenyl)-2-(((5-methyl-1,3,4-oxadiazol-2-yl)acetyl)amino)acetamide], the values for the inhibition at 1 µM at RORγt [1] and at RORγt [2] were 103% and 96%, respectively. Also, the inhibition at 3 µM on RORγt [3] amounted to 98.5%.

Turning to `COCc1ccc([C@@H](NC(=O)[C@H]2CNC(=O)C2)C(=O)Nc2cc(F)c([Si](C)(C)C)c(F)c2)cc1` [Example 68, (3R)—N-((1R)-2-((3,5-difluoro-4-(trimethylsilyl)phenyl)amino)-1-(4-(methoxymethyl)phenyl)-2-oxoethyl)-5-oxopyrrolidine-3-carboxamide], the values for the inhibition at 1 µM on RORγt [1] and at RORγt [2] were 101% and 96.2%, respectively. Besides, the inhibition at 3 µM on RORγt [3] stood at 98.7%.

On to `COCc1ccc([C@@H](NC(=O)N2CC(O)C2)C(=O)Nc2ccc([Si](C)(C)C)c(F)c2)cc1` [Example 69, N-((1R)-2-((3-fluoro-4-(trimethylsilyl)phenyl)amino)-1-(4-(methoxymethyl)phenyl)-2-oxoethyl)-3-hydroxyazetidine-1-carboxamide], for which the inhibition at 1 µM on RORγt [1] was found to be 103%; on RORγt [2] it was 96.8%. In addition, the inhibition at 3 µM at RORγt [3] turned out to be 98.4%.

With `COc1ccc([C@@H](NC(=O)[C@H]2CNC(=O)C2)C(=O)Nc2ccc([Si](C)(C)C)c(F)c2)cc1` [Example 70, (3R)—N-((1R)-2-((3-fluoro-4-(trimethylsilyl)phenyl)amino)-1-(4-methoxyphenyl)-2-oxoethyl)-5-oxopyrrolidine-3-carboxamide], the inhibition at 1 µM came to 101% on RORγt [1] and 82.8% at RORγt [2]. Moreover, the inhibition at 3 µM at RORγt [3] came out at 96.5%.
